Deaths and Observable signs data for 1 compound are collected here from US7375083B2, “Pharmaceutical compositions for prevention of overdose or abuse” (Shire LLC, priority 2003, dated 2008).

The structures appear in SMILES notation.

The data set has as its system Sprague Dawley rats. The experiment in a line: Single-dose oral toxicity. It counts as in vivo. To be noted: rat; for Observable signs: single oral dose. As to the method:
Three male and three female Sprague Dawley rats per group were given a single oral administration of L-lysine-d-amphetamine at 0.1, 1.0, 10, 60, 100 or 1000 mg/kg (Table 44).
Animals found dead, or sacrificed moribund were necropsied and discarded. A total of one animal/sex/group was necropsied upon scheduled or unscheduled death.

With `CC(Cc1ccccc1)NC(=O)C(N)CCCCN` [L-lysine-d-amphetamine, 2,6-diaminohexanoic acid-(1-methyl-2-phenylethyl)-amide], the Deaths entry (single oral 1000 mg/kg, 7 days) is given as “only one death occurred out of a group of six animals”. Further, the Observable signs result runs as follows: (Groups 1-3 (doses 0.1 to 1000 mg/kg in six groups)) “no observable signs”; (Groups 4-6 (doses 0.1 to 1000 mg/kg in six groups)) “increased motor activity within two hours post-dose”.
